{"source": "paper PMC12581733", "about": "“Microbial Transglutaminase Increases Uptake and Translocation of Gliadin Peptides in the Human Intestinal Epithelium” (Molecular Nutrition & Food Research, 2025)", "molecules": {"B1": {"name": "TG2: transglutaminase 2 (T022, Zedira) (protein, UniProt P21980 2-687, looked up)", "Protein-glutamine …": "AEELVLERCDLELETNGRDHHTADLCREKLVVRRGQPFWLTLHFEGRNYEASVDSLTFSVVTGPAPSQEAGTKARFPLRDAVEEGDWTATVVDQQDCTLSLQLTTPANAPIGLYRLSLEASTGYQGSSFVLGHFILLFNAWCPADAVYLDSEEERQEYVLTQQGFIYQGSAKFIKNIPWNFGQFEDGILDICLILLDVNPKFLKNAGRDCSRRSSPVYVGRVVSGMVNCNDDQGVLLGRWDNNYGDGVSPMSWIGSVDILRRWKNHGCQRVKYGQCWVFAAVACTVLRCLGIPTRVVTNYNSAHDQNSNLLIEYFRNEFGEIQGDKSEMIWNFHCWVESWMTRPDLQPGYEGWQALDPTPQEKSEGTYCCGPVPVRAIKEGDLSTKYDAPFVFAEVNADVVDWIQQDDGSVHKSINRSLIVGLKISTKSVGRDEREDITHTYKYPEGSSEEREAFTRANHLNKLAEKEETGMAMRIRVGQSMNMGSDFDVFAHITNNTAEEYVCRLLLCARTVSYNGILGPECGTKYLLNLNLEPFSEKSVPLCILYEKYRDCLTESNLIKVRALLVEPVINSYLLAERDLYLENPEIKIRILGEPKQKRKLVAEVSLQNPLPVALEGCTFTVEGAGLTEEQKTVEIPDPVEAGEEVKVRMDLLPLHMGLHKLVVNFESDKLKAVKGFRNVIIGPA"}}, "key": {"TG2 [1]": {"target": "T1, TG2 (Homo sapiens, UniProt P21980)", "T1 construct": "purchased Zedira T022", "T1 sequence (P21980 1-687)": "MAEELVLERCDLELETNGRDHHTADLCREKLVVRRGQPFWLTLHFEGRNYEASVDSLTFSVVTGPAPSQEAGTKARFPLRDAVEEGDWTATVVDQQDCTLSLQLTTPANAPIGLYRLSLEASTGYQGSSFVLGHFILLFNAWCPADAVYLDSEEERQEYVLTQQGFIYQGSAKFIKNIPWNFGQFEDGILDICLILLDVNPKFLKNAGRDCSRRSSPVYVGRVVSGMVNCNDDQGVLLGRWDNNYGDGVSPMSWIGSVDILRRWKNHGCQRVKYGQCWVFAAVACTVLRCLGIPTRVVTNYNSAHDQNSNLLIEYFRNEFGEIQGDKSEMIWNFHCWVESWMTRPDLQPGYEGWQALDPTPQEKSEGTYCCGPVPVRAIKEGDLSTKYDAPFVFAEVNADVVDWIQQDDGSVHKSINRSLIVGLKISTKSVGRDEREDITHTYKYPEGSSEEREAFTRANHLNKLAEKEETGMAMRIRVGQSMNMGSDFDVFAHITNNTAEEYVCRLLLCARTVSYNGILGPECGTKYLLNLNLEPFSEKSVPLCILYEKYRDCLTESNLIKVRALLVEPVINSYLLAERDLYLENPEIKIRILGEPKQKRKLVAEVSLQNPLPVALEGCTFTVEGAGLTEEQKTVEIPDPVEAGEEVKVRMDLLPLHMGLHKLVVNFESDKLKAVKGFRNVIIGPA", "assay": "In vitro transamidation (crosslinking) of gliadin peptides, indirect ELISA, TG2", "format": "biochemical", "conditions": "inhibitor 100 µM, Fig. 1A", "experimental": "TG2 (10 nM, T022, Zedira, Darmstadt, Germany) or mTG (10 nM, T001, Zedira) were immobilized on a 96‐well plate (Sarstedt, Nümbrecht, Germany) in 50 mM Tris, 1 mM ethylenediamine tetraacetic acid (EDTA), 5 mM calcium chloride (pH 7.5) buffer containing 10 mM dithiotreitol (DTT, Merck KGaA, Darmstadt, Germany). After blocking with 2% bovine serum albumin (BSA, Carl Roth GmbH, Karlsruhe, Germany), the transglutaminase inhibitors ERW1041 (5095220001, Sigma–Aldrich, Darmstadt, Germany) and mTG‐blocker (C102, Zedira, each 100 µM) were applied according to protocol. Immobilized transglutaminases were incubated with biotin‐conjugated gliadin peptides or pepsin/trypsin digested gliadin (PTG, Table 2). Detection of crosslinked biotinylated gliadin peptides and PTG was done using horseradish peroxidase (HRP)‐conjugated streptavidin (1:2500, 405210, Biolegend, San Diego, CA, USA) or a specific gliadin antibody (1:1000, clone XGY4, Zedira) and the corresponding secondary HRP‐conjugated antibody (1:1000; sc‐516102, Santa Cruz Biotechnology, Dallas, TX, USA). The HRP‐substrate tetramethylbenzidine (TMB, T0440, Sigma–Aldrich, Darmstadt, Germany) was added, and photometric quantitation at 655 nm was performed after 15 min using a Clariostar Plus microplate reader (BMG Labtech, Ortenberg, Germany)."}, "Caco‐2 cells [2]": {"tested_on": "Caco‐2 cells", "conditions": "inhibitor 100 µM, TG2 100 nM; immunofluorescence microscopy"}, "TG2 [3]": {"target": "T1, TG2", "assay": "Extracellular crosslinking of 5BP to the Caco-2 cell surface by TG2", "format": "cell-based", "conditions": "5BP 500 µM, TG2 100 nM, 1 h; dose-dependent; fluorometry and confocal microscopy", "experimental": "Confluent Caco‐2 cell monolayers were incubated with the transglutaminase substrate EZ‐link pentylamine‐biotin (5‐biotinamidopentylamine [5BP], 500 µM, 21345, Thermo Fisher Scientific) with or without mTG or TG2 (100 nM) in Tris buffer for 1 h. Corresponding transglutaminase inhibitors ERW1041 and mTG‐blocker were added to the solution at the indicated concentration. After fixation with 4% paraformaldehyde and blocking with 5% BSA, cells were incubated with streptavidin‐Alexa Fluor488 (S11223, 4 µg/mL, Thermo Fisher Scientific). Fluorometric quantitation was conducted using a FLUOstar Optima microplate reader (BMG Labtech, Ortenberg, Germany). For immunofluorescence microscopy, nuclei were stained with Hoechst dye (1:1000 in PBS, 44442, Thermo Fisher Scientific) for 10 min. Microscopy was done using a confocal laser scanning microscope (TE2000‐E, Nikon) and 20x Plan Apo […] objective. Image processing and quantitation were performed using ImageJ [32]."}, "TG2 [4]": {"target": "T1, TG2", "assay": "Immunoblot of gliadin-transglutaminase complexes", "format": "biochemical", "conditions": "TG2 1 µM, ERW1041 100 µM, 30 min, 37°C, n = 3", "experimental": "TG2 or mTG (1 µM) was incubated with gliadin peptides (Table 2) with or without ERW1041 as TG2 blocker or the mTG‐blocker (100 µM) in Tris buffer. Biotinylated gliadin peptides or PTG was added to the solution at the indicated concentrations, and incubation was performed for 30 min at 37°C. The reaction was stopped by placing the samples on ice. Detailed description of the conditions for electrophoresis and blotting have been published elsewhere. After blocking the membrane for 1 h with 5% nonfat dry milk in phosphate buffered saline (PBS) + 2.5% tween, incubation with the primary antibody was performed at 4°C overnight (Table 3). The next day, incubation with the corresponding HRP‐conjugated secondary antibody was done. The crosslinking of biotinylated gliadin peptides was detected by streptavidin‐HRP alone. Visualization was done with the Super‐Signal West Femto kit (34096, Thermo Fisher Scientific, Langenselbold, Germany) for 5 min. Image processing and quantitation were performed using a ChemiDoc XRS+ imager and Image Lab software (BioRad Laboratories, Feldkirchen, Germany)."}, "Caco‐2 cells [5]": {"tested_on": "Caco‐2 cells", "conditions": "inhibitor 100 µM, TG2 100 nM, biotinylated P56-88 and P31-49; fluorometry"}, "Caco‐2 cells [6]": {"tested_on": "Caco‐2 cells", "assay": "Cell viability, PrestoBlue HS assay", "format": "cell-based, human", "conditions": "used concentrations, 24 hours in culture medium; PrestoBlue HS 2 hours; Figure S1", "experimental": "The effect of transglutaminases on the viability of Caco‐2 cells was investigated using the resazurin‐based PrestoBlue HS assay (P50200, Thermo Fisher Scientific) as described elsewhere. Details are provided in the Supporting Information.\nCells were incubated with mTG or TG2 at the indicated concentrations for 24 hours in culture medium. Incubation with PrestoBlue HS, diluted 1:10 in medium was performed for 2 hours at 37°C. Fluorometric examination was conducted using a Clariostar Plus microplate reader."}}, "data": [{"molecule": "O=C(NC[C@@H]1CC(Br)=NO1)[C@@H]1CCCN1C(=O)OCc1cnc2ccccc2c1", "note": "[ERW1041]", "values": [{"measurement": "Effect of inhibitor on TG2-mediated crosslinking of PTG", "setting": "TG2 [1]", "value": "significantly reduced crosslinking of PTG"}, {"measurement": "Effect of inhibitor on TG2-enhanced cellular uptake of P56-88", "setting": "Caco‐2 cells [2]", "value": "reduced cellular peptide uptake to the baseline level"}, {"measurement": "Effect of inhibitor on TG2-mediated crosslinking of 5BP to the cell surface", "setting": "TG2 [3]", "value": "reduced crosslinking of 5BP"}, {"measurement": "Effect of inhibitor on transamidation of gliadin peptides to TG2", "setting": "TG2 [4]", "value": "significantly reduced transamidation of all gliadin peptides to TG2"}, {"measurement": "Effect of inhibitor on TG2-mediated gliadin peptide uptake", "setting": "Caco‐2 cells [5]", "value": "to the baseline level"}]}, {"molecule": "B1", "values": [{"measurement": "Effect on cell viability", "setting": "Caco‐2 cells [6]", "value": "did not affect cell viability"}]}]}
